Source: ChEMBL document CHEMBL5465560, “Selectivity Literature for EUbOPEN Chemogenomic Library” (2024)
One block for each molecule: values may come before it.

Columns and labels:
[1] = biological target: LIM domain kinase 2 (Homo sapiens) (UniProt P53671); assay: Selectivity interaction (KinomeScan (DiscoverX)) EUB0000666a LIMK2; details: at 10 µM
[2] = biological target: Serine/threonine-protein kinase NIM1 (Homo sapiens, UniProt Q8IY84); assay: Selectivity interaction (KinomeScan (DiscoverX)) EUB0000666a NIM1K; details: at 10 µM
[3] = biological target: Serine/threonine-protein kinase N2 (Homo sapiens, UniProt Q16513); assay: Selectivity interaction (Kinase panel (33PanQinase(R) Activity Assay)) EUB0000877a PKN2
[4] = biological target: Prostaglandin G/H synthase 2 (Homo sapiens, UniProt P35354); assay: Selectivity interaction (COX-2 assay, human recombinant ) EUB0000877a PTGS2
[5] = biological target: Epidermal growth factor receptor (Homo sapiens, UniProt P00533); assay: Selectivity interaction (Kinase panel (33PanQinase(R) Activity Assay)) EUB0000877a EGFR
[6] = biological target: Tyrosine-protein kinase Fer (Homo sapiens) (UniProt P16591); assay: Selectivity interaction (KinomeScan (DiscoverX)) EUB0000607a FER; details: at 10 µM
[7] = biological target: T1, Phosphatidylinositol 4,5-bisphosphate 3-kinase catalytic subunit delta isoform (Homo sapiens) (UniProt O00329); assay: Selectivity interaction (ActivX KiNativ screen (kinase selectivity in THP-1 cell lysates)) EUB0000639a PIK3CD; format: subcellular; details: lysate, at 0.01 µM
T1 sequence (whole entry): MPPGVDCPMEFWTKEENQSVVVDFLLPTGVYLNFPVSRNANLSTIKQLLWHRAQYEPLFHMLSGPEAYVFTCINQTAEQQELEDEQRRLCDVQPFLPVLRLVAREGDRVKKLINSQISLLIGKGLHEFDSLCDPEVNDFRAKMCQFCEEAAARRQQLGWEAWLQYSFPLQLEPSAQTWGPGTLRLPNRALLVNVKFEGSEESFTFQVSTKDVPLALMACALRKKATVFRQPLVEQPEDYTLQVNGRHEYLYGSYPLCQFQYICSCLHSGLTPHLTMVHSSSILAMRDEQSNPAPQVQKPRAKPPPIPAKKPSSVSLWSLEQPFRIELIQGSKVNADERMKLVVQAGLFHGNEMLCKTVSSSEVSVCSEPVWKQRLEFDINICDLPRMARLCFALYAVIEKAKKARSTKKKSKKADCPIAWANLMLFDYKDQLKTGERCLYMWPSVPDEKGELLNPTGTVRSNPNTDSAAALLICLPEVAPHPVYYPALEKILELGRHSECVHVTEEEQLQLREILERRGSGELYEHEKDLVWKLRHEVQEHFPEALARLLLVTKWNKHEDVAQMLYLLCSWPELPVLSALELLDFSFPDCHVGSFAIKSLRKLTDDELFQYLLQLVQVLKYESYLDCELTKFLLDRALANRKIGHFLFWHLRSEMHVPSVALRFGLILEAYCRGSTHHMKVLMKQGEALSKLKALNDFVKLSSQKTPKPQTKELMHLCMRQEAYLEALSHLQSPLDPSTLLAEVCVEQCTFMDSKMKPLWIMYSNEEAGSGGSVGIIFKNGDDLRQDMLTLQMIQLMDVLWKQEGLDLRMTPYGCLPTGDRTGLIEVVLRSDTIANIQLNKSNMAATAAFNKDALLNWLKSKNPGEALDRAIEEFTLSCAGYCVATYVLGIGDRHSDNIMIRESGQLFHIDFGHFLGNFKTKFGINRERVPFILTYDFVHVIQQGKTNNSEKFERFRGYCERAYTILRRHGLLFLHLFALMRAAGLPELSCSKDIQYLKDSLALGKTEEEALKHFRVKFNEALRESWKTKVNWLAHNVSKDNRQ

[8] = biological target: SRSF protein kinase 3 (Homo sapiens) (UniProt Q9UPE1); assay: Selectivity interaction (Ambit KINOMEscan and KiNATiv profiling in Jurkat cells) EUB0000090b SRPK3; format: cell-based; details: at 1 µM
[9] = biological target: Cyclin-dependent kinase-like 1 (Homo sapiens) (UniProt Q00532); assay: Selectivity interaction (KinomeScan (DiscoverX)) EUB0000655a CDKL1; details: at 10 µM
[10] = biological target: Tyrosine-protein kinase ABL2 (Homo sapiens, UniProt P42684); assay: Selectivity interaction (KinomeScan (DiscoverX)) EUB0000655a ABL2; details: at 10 µM
[11] = biological target: Tyrosine-protein kinase Lyn (Homo sapiens, UniProt P07948); assay: Selectivity interaction (KinomeScan (DiscoverX)) EUB0000655a LYN; details: at 10 µM
Insulin receptor = Insulin receptor (Homo sapiens, UniProt P06213)
[12] = biological target: Mitogen-activated protein kinase kinase kinase 20 (Homo sapiens) (UniProt Q9NYL2); assay: Selectivity interaction (KinomeScan (DiscoverX)) EUB0000092b MAP3K20; details: at 10 µM
[13] = biological target: Ephrin type-A receptor 5 (Homo sapiens) (UniProt P54756); details: at 10 µM
SRSF protein kinase 1 = SRSF protein kinase 1 (Homo sapiens, UniProt Q96SB4); details: at 10 µM
[14] = biological target: T2, NUAK family SNF1-like kinase 1 (Homo sapiens) (UniProt O60285); assay: Selectivity interaction (KinomeScan (DiscoverX)) EUB0000618a NUAK1; details: at 10 µM
T2 sequence (whole entry): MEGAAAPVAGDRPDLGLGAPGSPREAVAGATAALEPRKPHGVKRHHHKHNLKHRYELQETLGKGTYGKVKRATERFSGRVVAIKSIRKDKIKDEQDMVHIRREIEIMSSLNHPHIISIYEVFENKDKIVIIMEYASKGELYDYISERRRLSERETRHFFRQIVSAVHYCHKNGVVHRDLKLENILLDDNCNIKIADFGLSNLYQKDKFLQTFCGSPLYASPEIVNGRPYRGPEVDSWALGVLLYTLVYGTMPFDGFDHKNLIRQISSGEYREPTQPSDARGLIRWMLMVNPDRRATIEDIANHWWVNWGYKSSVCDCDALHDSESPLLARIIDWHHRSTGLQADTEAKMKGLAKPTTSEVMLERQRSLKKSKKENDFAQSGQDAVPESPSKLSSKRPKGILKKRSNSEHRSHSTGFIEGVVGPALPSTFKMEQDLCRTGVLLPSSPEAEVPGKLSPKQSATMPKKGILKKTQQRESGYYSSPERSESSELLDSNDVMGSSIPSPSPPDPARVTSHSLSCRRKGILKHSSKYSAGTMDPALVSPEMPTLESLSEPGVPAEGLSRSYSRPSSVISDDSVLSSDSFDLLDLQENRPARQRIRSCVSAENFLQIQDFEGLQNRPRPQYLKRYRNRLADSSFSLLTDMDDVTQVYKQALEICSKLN

Prostaglandin G/H synthase 2, sequence (P35354 whole entry): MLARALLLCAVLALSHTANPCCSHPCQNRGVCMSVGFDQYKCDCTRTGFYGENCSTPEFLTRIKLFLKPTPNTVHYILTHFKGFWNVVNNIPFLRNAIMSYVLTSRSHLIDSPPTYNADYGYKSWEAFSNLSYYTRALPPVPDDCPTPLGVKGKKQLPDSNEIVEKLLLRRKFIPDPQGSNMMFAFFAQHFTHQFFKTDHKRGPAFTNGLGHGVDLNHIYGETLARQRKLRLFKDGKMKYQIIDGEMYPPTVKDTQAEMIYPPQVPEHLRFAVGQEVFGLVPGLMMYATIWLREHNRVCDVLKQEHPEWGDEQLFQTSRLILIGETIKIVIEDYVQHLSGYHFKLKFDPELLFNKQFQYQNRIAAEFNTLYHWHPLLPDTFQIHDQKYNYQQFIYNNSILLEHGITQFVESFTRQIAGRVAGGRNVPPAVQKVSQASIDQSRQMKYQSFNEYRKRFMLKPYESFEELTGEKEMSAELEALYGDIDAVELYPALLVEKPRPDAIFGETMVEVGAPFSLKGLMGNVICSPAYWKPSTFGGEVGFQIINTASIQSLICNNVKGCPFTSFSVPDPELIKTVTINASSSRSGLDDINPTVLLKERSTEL
SRSF protein kinase 3 (Homo sapiens), sequence (Q9UPE1 whole entry): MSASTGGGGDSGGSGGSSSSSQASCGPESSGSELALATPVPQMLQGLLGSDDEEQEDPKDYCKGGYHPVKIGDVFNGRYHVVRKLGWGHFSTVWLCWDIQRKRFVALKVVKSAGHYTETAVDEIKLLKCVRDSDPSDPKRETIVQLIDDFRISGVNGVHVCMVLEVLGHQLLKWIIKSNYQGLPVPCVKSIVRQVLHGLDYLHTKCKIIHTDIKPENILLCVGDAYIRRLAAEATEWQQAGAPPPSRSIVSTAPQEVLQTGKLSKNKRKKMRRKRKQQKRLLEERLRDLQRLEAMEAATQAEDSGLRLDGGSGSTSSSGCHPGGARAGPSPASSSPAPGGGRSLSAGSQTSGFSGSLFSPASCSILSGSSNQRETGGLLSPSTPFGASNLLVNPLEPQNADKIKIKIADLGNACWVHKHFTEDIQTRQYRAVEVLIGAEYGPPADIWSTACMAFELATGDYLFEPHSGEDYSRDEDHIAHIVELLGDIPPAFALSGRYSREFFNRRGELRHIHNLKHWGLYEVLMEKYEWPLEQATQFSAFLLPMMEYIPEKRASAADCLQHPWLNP
Insulin receptor, sequence (P06213 28-758 limits assumed): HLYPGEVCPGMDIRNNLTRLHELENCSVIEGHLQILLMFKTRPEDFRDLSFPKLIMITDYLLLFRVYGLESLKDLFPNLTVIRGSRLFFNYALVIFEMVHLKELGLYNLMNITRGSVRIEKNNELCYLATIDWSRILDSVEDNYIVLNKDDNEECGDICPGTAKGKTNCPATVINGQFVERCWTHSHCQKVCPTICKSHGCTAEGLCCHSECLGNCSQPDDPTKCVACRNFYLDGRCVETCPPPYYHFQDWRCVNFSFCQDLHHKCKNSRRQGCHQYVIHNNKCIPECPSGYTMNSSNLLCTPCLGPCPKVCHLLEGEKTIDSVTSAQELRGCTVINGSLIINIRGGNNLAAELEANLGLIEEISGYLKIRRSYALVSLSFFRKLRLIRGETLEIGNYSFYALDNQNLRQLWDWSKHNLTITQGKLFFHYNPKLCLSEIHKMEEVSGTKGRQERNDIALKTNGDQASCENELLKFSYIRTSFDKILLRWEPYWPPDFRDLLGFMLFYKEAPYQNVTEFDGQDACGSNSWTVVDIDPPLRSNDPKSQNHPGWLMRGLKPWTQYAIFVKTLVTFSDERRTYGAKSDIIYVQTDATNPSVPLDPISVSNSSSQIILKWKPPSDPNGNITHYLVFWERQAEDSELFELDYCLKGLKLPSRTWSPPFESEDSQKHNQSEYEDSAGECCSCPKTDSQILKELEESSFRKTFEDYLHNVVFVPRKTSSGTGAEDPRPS
Insulin receptor, sequence (P06213 763-1382 limits assumed): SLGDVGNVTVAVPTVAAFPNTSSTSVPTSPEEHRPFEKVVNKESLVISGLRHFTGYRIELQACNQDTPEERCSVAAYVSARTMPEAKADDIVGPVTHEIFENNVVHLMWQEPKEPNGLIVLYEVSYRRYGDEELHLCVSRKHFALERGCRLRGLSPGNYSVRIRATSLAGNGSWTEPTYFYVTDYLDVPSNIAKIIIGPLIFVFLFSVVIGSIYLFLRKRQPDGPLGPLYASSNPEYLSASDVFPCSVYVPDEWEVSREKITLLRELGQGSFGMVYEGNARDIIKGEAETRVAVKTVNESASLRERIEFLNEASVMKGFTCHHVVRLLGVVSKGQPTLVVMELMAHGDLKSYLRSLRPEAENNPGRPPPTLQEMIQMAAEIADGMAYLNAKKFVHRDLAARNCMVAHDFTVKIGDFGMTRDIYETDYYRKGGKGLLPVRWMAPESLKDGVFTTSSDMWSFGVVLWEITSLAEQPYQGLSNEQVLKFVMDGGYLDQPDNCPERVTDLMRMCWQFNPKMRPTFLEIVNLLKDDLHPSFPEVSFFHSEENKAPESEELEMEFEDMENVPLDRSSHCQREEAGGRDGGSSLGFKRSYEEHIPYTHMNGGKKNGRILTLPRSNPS
Mitogen-activated protein kinase kinase kinase 20 (Homo sapiens), sequence (Q9NYL2 2-800 limits assumed): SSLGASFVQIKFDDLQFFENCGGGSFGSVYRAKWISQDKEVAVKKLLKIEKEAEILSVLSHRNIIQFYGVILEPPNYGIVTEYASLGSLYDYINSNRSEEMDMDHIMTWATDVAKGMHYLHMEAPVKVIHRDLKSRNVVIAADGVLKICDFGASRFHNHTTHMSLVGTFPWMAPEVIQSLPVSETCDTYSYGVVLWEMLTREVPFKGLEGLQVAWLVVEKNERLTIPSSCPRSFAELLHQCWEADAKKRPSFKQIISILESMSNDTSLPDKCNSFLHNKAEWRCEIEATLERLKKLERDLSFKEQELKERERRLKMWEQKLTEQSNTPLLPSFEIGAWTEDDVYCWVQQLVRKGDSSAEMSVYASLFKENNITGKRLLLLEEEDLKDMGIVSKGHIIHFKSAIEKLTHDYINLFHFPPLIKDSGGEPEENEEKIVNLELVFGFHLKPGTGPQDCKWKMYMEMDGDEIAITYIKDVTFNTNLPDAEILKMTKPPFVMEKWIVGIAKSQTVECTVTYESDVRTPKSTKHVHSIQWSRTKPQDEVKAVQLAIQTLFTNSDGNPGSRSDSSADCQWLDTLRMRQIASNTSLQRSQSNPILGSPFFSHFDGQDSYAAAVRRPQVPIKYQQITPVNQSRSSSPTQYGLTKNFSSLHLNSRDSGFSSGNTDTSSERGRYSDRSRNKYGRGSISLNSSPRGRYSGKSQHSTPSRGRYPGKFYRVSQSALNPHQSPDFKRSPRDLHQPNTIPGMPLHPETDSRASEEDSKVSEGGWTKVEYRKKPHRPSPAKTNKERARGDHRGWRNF
Tyrosine-protein kinase Lyn, sequence (P07948 2-512 limits assumed): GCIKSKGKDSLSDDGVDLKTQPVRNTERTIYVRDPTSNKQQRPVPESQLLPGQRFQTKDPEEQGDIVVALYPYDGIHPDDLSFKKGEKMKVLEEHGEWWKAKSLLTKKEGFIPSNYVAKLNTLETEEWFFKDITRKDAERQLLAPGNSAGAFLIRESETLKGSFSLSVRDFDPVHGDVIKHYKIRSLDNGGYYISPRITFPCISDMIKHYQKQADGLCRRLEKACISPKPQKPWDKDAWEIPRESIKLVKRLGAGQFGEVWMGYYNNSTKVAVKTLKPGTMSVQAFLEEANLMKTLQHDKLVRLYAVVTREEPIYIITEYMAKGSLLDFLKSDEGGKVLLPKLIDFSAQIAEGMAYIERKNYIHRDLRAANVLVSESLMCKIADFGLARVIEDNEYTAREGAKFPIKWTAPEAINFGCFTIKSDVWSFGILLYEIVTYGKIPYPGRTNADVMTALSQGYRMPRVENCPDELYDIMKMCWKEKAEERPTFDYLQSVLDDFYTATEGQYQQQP
Cyclin-dependent kinase-like 1 (Homo sapiens), sequence (Q00532 whole entry): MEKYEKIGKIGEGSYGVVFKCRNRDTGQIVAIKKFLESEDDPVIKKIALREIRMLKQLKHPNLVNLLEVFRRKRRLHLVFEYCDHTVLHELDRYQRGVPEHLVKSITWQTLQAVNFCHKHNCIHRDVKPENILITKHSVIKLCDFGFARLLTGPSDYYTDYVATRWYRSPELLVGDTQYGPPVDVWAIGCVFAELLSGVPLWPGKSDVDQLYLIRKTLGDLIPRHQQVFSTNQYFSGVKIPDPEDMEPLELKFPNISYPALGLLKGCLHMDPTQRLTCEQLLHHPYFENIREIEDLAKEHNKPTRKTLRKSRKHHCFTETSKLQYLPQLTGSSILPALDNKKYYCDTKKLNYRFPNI
LIM domain kinase 2 (Homo sapiens), sequence (P53671 whole entry, looked up, the tested form may be a part): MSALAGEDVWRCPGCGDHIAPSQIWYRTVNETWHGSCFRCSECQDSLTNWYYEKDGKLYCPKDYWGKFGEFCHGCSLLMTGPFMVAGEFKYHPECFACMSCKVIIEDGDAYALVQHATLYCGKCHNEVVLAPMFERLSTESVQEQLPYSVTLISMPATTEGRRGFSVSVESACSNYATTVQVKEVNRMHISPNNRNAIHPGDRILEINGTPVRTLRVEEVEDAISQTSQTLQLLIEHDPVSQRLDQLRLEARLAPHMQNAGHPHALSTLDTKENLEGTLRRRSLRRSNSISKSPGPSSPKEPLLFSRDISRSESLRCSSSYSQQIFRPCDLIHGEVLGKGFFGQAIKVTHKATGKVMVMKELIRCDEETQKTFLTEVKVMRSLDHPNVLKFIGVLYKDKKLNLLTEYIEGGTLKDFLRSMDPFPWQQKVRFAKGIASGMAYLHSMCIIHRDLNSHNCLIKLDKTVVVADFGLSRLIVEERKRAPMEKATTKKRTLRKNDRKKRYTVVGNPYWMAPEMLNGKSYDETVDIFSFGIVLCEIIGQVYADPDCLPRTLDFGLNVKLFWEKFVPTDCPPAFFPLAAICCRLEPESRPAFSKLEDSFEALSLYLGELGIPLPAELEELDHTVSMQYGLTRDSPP

SMILES: O=C(NOC[C@H](O)CO)c1ccc(F)c(F)c1Nc1ccc(I)cc1F
- % of control [1]: 100%
- % of control [2]: 100%

- IC50 [3]: > 10 µM
- IC50 [4]: > 30 µM
- IC50 [5]: > 10 µM
SMILES: CCC(=O)N1CC[C@H](Nc2ncnc3c2CN(c2cnc(OC)c(C(F)(F)F)c2)CC3)C1 [LENIOLISIB]

SMILES: CNC(=O)Nc1ccc(-c2nc(N3CC4CCC(C3)O4)c3cnn(C4CCC5(CC4)OCCO5)c3n2)cc1
- % of control [6]: 100%

- % of inhibition [7]: -9.6%
SMILES: CC[C@@H]1[C@H](F)C(=O)N[C@@H]1COc1nccc2cc(C(N)=O)c(OC)cc12 [ZIMLOVISERTIB]

SMILES: CN(C)C/C=C/C(=O)Nc1ccc(C(=O)N2CCCC(Nc3ncc(Cl)c(-c4c[nH]c5ccccc45)n3)C2)cc1 (stereo unspecified)
- % of control [8]: 93%

SMILES: CN(C)CCOc1ccc(-c2nc(-c3ccncc3)c(-c3ccc4c(c3)CC/C4=N\O)[nH]2)cc1
- % of control [9]: 100%
- % of control [10]: 55%
- % of control [11]: 86%

- IC50 (Insulin receptor): > 10 µM
SMILES: CCc1cccc(CC)c1NC(=O)c1nn(C)c2c1CCc1cnc(Nc3ccc(C(=O)NC4CCN(C)CC4)cc3OC(F)(F)F)nc1-2

SMILES: CCC(=O)N1CCN(c2ccc(-n3c(=O)ccc4cnc5ccc(-c6cnc7ccccc7c6)cc5c43)cc2C(F)(F)F)CC1
- % of control [12]: 22%

SMILES: Cc1cc([C@@H](C)Nc2ccccc2C(=O)O)c2nc(N3CCOCC3)cc(=O)n2c1 [AZD-6482]
- % of control [13]: 99%
- % of control (SRSF protein kinase 1): 100%

SMILES: O[C@H]1CC[C@H](Nc2ncc3nc(Nc4c(F)cc(F)cc4F)n([C@H]4CCOC4)c3n2)CC1
- % of control [14]: 97%
